Measurements published in publication PMC9079923, “Trifluoromethylated proline analogues as efficient tools to enhance the hydrophobicity and to promote passive diffusion transport of the L-prolyl-L-leucyl glycinamide (PLG) tripeptide” (RSC Advances, 2018).
Residues, ends and D or L forms follow the SMILES beside them.

How the values were obtained:
[1] = Parallel artificial membrane permeability assay (PAMPA), in vitro model of the BBB
Description: (§1) We then decided to evaluate the ability of our fluorinated PLG analogues 2 and 3 to cross the BBB through passive diffusion. […] The rate of permeation can be determined by the effective permeability (Pe) as well as the rate of transport values. The membrane retention value can also be obtained and reflects the strength of the interaction between the lipids that mimic the membrane and the peptide.
(§2) The buffer solution was prepared from a commercially concentrated one, supplied by pION. Following the manufacturer's instructions, system solution was adjusted to pH 7.4 using a 0.5 M NaOH solution. The compounds to be analyzed were dissolved in a mixture of buffer solution with 20% of 1-propanol used as co-solvent to ensure their solubility. The PAMPA sandwich was separated, and the donor wells were filled with 195 μL of each compound. A magnetic stirrer was placed in each well. The acceptor plate was put into the donor plate, ensuring that the underside of the membrane was in contact with the buffer. Then, 4 μL of a mixture of phospholipids from a porcine polar brain extract (20 mg mL^−1) in dodecane (composition: 12.6% phosphatidylcholine (PC), 33.1% phosphatidylethanolamine (PE), 18.5% phosphatidylserine (PS), 4.1% phosphatidylinositol (PI), 0.8% phosphatidic acid and 30.9% of other compounds) was added to the filter of each well, followed by 200 μL of buffer solution. The plate was then covered and incubated at room temperature in a saturated humidity atmosphere for 4 h under orbital agitation at 25 μm of unstirred water layer (UWL). After this period, the solution from the donor and acceptor plates was transferred to the UPLC vials. 100 μL of each acceptor and donor samples and 100 μL of t0 samples were injected into the UPLC apparatus.
(§3) Membrane retention was also calculated as the difference of product at t0 and after 4 h in the donor and acceptor compartments.

[2] = Isocratic hydrophobicity index φ0 by RP-HPLC; assay type: physicochemical; conditions: RP-C18
Description: The hydrophobicity of the fluorinated analogues of PLG has then been assessed and compared to the native PLG 1 in order to investigate the specific effect imparted by the CF3 group. […] It is based on the measurement of the isocratic hydrophobicity index (φ0) which is defined as the percentage (by volume) of organic solvent required to achieve an equal distribution of compound between the polar mobile and apolar stationary phases. Thus, higher is the φ0 value, more hydrophobic is the compound. The method involves the measurement of the logarithm of retention factor k (log k) values by reversed-phase high-performance liquid chromatography (RP-HPLC) using various organic-phase concentrations in the mobile phase (in our case, the acetonitrile is used). By plotting the log k values as a function of the acetonitrile concentration, the φ0 value can be obtained from the slope and the intercept of the linear regression (φ0 = −intercept/slope). A good correlation between the φ0 and the log P values was shown.[15] The hydrophobicity index of our peptides was first measured at pH 7. […] The φ0 values were then measured at pH 2 to investigate the impact of the possible ionic form of the PLG peptides 1–3 on the hydrophobicity parameter. The lower φ0 value observed for the native PLG 1 is consistent with its expected polar ionic state (entry 1, Table 1). […] Only a slight decrease in the φ0 value is observed for the (S,S,S)-3 (entry 4, Table 1), that of the (R,S,S)-3 diastereomer remaining almost unchanged (entry 5, Table 1).
An Agilent 1200 series high-performance liquid chromatograph coupled to an ELSD detector was used. The reversed-phase HPLC measurements were carried out on a Zorbax® RX-C18 analytical column (4.6 × 250 mm, 5 μm). The mobile phase was 50 mM ammonium acetate and HPLC grade acetonitrile as organic modifier (pH 7.0) or TFA 0.1% buffer aqueous solution and 0.1% TFA HPLC grade acetonitrile (pH 2). The mobile phase flow rate was ranging from 0.1–1.0 mL min^−1. The dead time (t0) was measured by injecting sodium nitrate together with the sample at a concentration of 10 mM. The samples were dissolved at 1 mg/1 mL in water. Few drops of acetonitrile were added when the dissolution of the peptide was incomplete. The logarithm of retention factor k (log k) values were obtained according to the eqn (1):1 [drawing 1] where tR is the retention time of the compound and t0 the retention time of the unretained sodium nitrate solute.
The log k values were plotted as a function of the acetonitrile concentration. The slope (S) and the intercept (log kw) values were calculated from at least three concentrations of acetonitrile. The correlation coefficients of the linear fit were higher than 0.99. The isocratic hydrophobicity index φ0 was calculated according to the eqn (2):2 φ0 = −log kw/Swhere log kw is the log k value extrapolated to the 0% acetonitrile concentration.

[3] = parameters: method as in PMID 12667689; conditions: cited from earlier work
[4] = PAMPA, pH 7.4
Description: as §1, §2, §3

[5] = pH 7.4, Effective permeability class according to the empirical BBB permeation prediction, pH 7.4, classes by ref 19
[6] = pH 7.4, Pe (× 10^6), effective permeability, pH 7.4, 4 h, 5 mM, mean ± SD
[7] = pH 7, 50 mM ammonium acetate / acetonitrile

Compound	Interaction with / retention in the membrane (in words) ([1]; pH 7.4, 4 h)	Membrane retention ([1]; pH 7.4, 4 h) [%]	Transport (%) (4 h) ([1]; pH 7.4, 4 h, 5 mM, mean ± SD)	Papp [1, 5] [×10⁻⁶ cm/s]	Papp [1, 6] [×10⁻⁶ cm/s]	φ0 (isocratic hydrophobicity index) ([2]; pH 2, TFA 0.1% / acetonitrile)	φ0 (isocratic hydrophobicity index) [2, 7]	Crossing of the blood–brain barrier (BBB) [3]	Permeability / ability to cross the membrane by passive diffusion (in words) [4]
CC(C)C[C@H](NC(=O)[C@@]1(C(F)(F)F)CCCN1)C(=O)NCC(N)=O [(R,S)-2, (R)-α-CF3-Pro-L-Leu-Gly-NH2]	strong interaction with the membrane	30	0.65 ± 0.06	< 2	0.31 ± 0.03				
CC(C)C[C@H](NC(=O)[C@]1(C(F)(F)F)CCCN1)C(=O)NCC(N)=O [(S,S)-2]	strong interaction with the membrane	50	5.34 ± 0.08	2 to 4	2.68 ± 0.04				
CC(C)C[C@H](NC(=O)[C@@H]1CCCN1)C(=O)NCC(N)=O [compound 1, L-prolyl-L-leucyl glycinamide] (H-Pro-Leu-Gly-NH2)	no peptide was retained in the membrane					9,2	12,3	known to cross the blood–brain barrier	very negligible
(2R,4S)-Ser(Ψ^CF^3,HPro)-L-Leu-Gly-NH2 [(R,S,S)-3]						30,4	30,8		
(2S,4S)-Ser(Ψ^CF^3,HPro)-L-Leu-Gly-NH2 [(S,S,S)-3]						25,3	27,5		
